Source: patent US20220073475A1, “5-MEMBERED HETEROARYL COMPOUNDS CONTAINING A HYDROXAMATE MOIETY AND THEIR USE” (UNIVERSITE DE LILLE, priority 2019, published 2022)

test system: OPM2 cells; assay: CFZ potency increase, ratio of CC50 of CFZ alone / with compound; type: cell-based, human; settings: OPM2, compound at 7.5 μM (Table 5)
Description: Human multiple myeloma cells OPM2 (ACC 50, DSMZ) are maintained at 0.3-0.7 10^6 cells/mL in RPMI1640 medium supplemented with GlutaMAX™, 10% fetal bovine serum and 1% penicillin-streptomycin.
We developed a cell-based, high content assay allowing the rapid detection and quantification of apoptotic cells. Caspase-3/7 activity was detected in real-time using the NucView™ 488 Caspase-3 substrate (Biotium), where the caspase-3/7 substrate peptide sequence DEVD is attached to a nucleic acid dye. The NucView™ 488 reagent crosses the plasma membrane to enter the cytoplasm, where the dye is unable to bind to DNA and remains non-fluorescent. Once the substrate has been cleaved by activated caspase-3/7 in apoptotic cells, the high-affinity DNA dye is released and migrates to the cell nucleus to stain the nucleus with a bright green fluorescence. All cell nuclei were also labeled with Hoechst 33342 (Ozyme).
For OPM2, briefly, nanoliters of compound and cytotoxic agent in DMSO stock solutions were first transferred and combined in 384-microtiter well plate using an Echo555 liquid handler (Labcyte). The exact volume of each solution to be transferred was calculated to achieve subsequently the target concentration in the 70 μL volume incubate. Final DMSO content was maintained at 0.2%. Then, 70 μL of cells treated with 1 μM NucView™ 488 and 20 ng/mL Hoechst 33342 were distributed to the plates to obtain a final density of 12,000 cells per well. The microplates were incubated at 37° C. and 5% CO2 in an automated LiCONiC STR240 UB cell incubator, and images were acquired at various times at 405 nm and 488 nm with the high-resolution automated confocal microscope INCell 6000 (GE). Four fields per well were read with the 20× objective in a confocal mode. The BioCel workstation was managed by VWorks automation control software
For all cells, Columbus software (Perkin) was used for image quantification and analysis. First, Hoechst 33342 staining was used for an automated detection of nuclei, in which the mean fluorescence intensity for NucView™ 488 was quantified. Inspection of control cells at initial time was used to set a threshold level of NucView™ 488 fluorescence to separate non apoptotic cells from apoptotic cells. Finally, for each well, the result was expressed as percentage of apoptotic cells in the total cell population. CC50 values were calculated from concentration-response curves by a nonlinear regression analysis at four parameters using Excel Fit or GraphPad Prim softwares.
Activity=(% of apoptotic cells with cytotoxic agent in combination with compound of the invention)/(% of apoptotic cells with cytotoxic agent alone). • Ratio of CC50: The CC50 of the cytotoxic agent was calculated in absence and in presence of a compound of the invention.
Activity=(CC50 of agent alone)/(CC50 of agent with compound). • Ratio of AUC. Activity=(Area of the dose-concentration curve of cytotoxic agent combined with one concentration of compound)/(Area of the dose-concentration curve of cytotoxic agent alone). (Lehar J. et al, 2008 (molecular systems biology 4:215)).

**Q.** With `O=C(C[C@@H](Cc1ccc2ccccc2c1)n1cc(CC(=O)Nc2ccc(F)c(F)c2)nn1)NO` [Compound 74, 3-{4-[(3,4-Difluoro-phenylcarbamoyl)-methyl]-[1,2,3]triazol-1-yl}-N-hydroxy-4-naphthalen-2-yl-butyramide] as the compound, how does the “Activity: ratio (CC50 of CFZ alone)/(CC50 of CFZ in combination with compound of the invention)” value (shortened to “Activity: ratio”) read?
**A.** 1.6

**Q.** `CC(C)CCN(Cc1cn([C@@H](CC(=O)NO)Cc2c[nH]c3ccccc23)nn1)C(=O)c1ccc(F)c(F)c1` [Compound 99, 3,4-difluoro-N-[[1-[(1R)-3-(hydroxyamino)-1-(1H-indol-3-ylmethyl)-3-oxo-propyl]triazol-4-yl]methyl]-N-isopentyl-benzamide] was tested. Which “Activity: ratio” value did it give?
**A.** 2.5

**Q.** How did the “Activity: ratio” value turn out when `O=C(C[C@@H](Cc1ccc2ccccc2c1)n1nncc1CNC(=O)C1CCCCC1)NO` [Compound 13, (R)-Cyclohexanecarboxylic acid [3-(1-hydroxycarbamoylmethyl-2-naphthalen-2-yl-ethyl)-3H-[1,2,3]triazol-4-ylmethyl]-amide] was run?
**A.** 1.2

**Q.** How did the “Activity: ratio” value turn out when `CN(Cc1cn([C@@H](CC(=O)NO)Cc2ccc3ccccc3c2)nn1)C(=O)c1ccc(F)cc1` [Compound 185, (R)-4-fluoro-N-((1-(4-(hydroxyamino)-1-(naphthalen-2-yl)-4-oxobutan-2-yl)-1H-1,2,3-triazol-4-yl)methyl)-N-methylbenzamide] was run?
**A.** 1.8

**Q.** With `O=C(CC(Cc1ccc2ccccc2c1)c1nc(CNC(=O)c2ccccc2)no1)NO` (centres unmarked) [Compound 28, N-[5-(1-hydroxycarbamoylmethyl-2-naphthalen-2-yl-ethyl)-[1,2,4]oxadiazol-3-ylmethyl]-benzamide] as the compound, how does the “Activity: ratio” value read?
**A.** 2.0

**Q.** Which “Activity: ratio” value does the source give for `O=C(C[C@@H](Cc1ccc2ccccc2c1)n1cc(CCNC(=O)c2ccc(F)c(F)c2)nn1)NO` [Compound 57, 3,4-difluoro-N-[2-[1-[(1R)-3-(hydroxyamino)-1-(2-naphthylmethyl)-3-oxo-propyl]triazol-4-yl]ethyl]benzamide] here?
**A.** 1.7

**Q.** Which “Activity: ratio” value does the source give for `O=C(C[C@@H](Cc1ccc2c(c1)OCCO2)n1cc(CNC(=O)c2ccc(F)c(F)c2)nn1)NO` [Compound 183, (R)—N-((1-(1-(2,3-dihydrobenzo[b][1,4]dioxin-6-yl)-4-(hydroxyamino)-4-oxobutan-2-yl)-1H-1,2,3-triazol-4-yl)methyl)-3,4-difluorobenzamide] here?
**A.** 1.2

**Q.** With `O=C(C[C@@H](Cc1csc2ccccc12)n1cc(CNC(=O)c2ccc(F)cc2)nn1)NO` [Compound 180, (R)—N-((1-(1-(benzo[b]thiophen-3-yl)-4-(hydroxyamino)-4-oxobutan-2-yl)-1H-1,2,3-triazol-4-yl)methyl)-4-fluorobenzamide] as the compound, how does the “Activity: ratio” value read?
**A.** 1.8

**Q.** With `Cn1ccc2cc(C[C@H](CC(=O)NO)n3cc(CNC(=O)c4ccc(F)cc4)nn3)ccc21` [Compound 177, (R)-4-fluoro-N-((1-(4-(hydroxyamino)-1-(1-methyl-1H-indol-5-yl)-4-oxobutan-2-yl)-1H-1,2,3-triazol-4-yl)methyl)benzamide] as the compound, how does the “Activity: ratio” value read?
**A.** 1.7

**Q.** `O=C(C[C@@H](Cc1ccc2c(c1)CCC(=O)N2)n1cc(CNC(=O)c2ccc(F)c(F)c2)nn1)NO` [Compound 171, (R)-3,4-difluoro-N-((1-(4-(hydroxyamino)-4-oxo-1-(2-oxo-1,2,3,4-tetrahydroquinolin-6-yl)butan-2-yl)-1H-1,2,3-triazol-4-yl)methyl)benzamide] was tested. Which “Activity: ratio” value did it give?
**A.** 1.2

**Q.** With `CC(NC(=O)c1ccc(F)cc1)c1cn([C@@H](CC(=O)NO)Cc2csc3ccccc23)nn1` (stereo partly drawn) [Compound 181, N-(1-(1-((R)-1-(benzo[b]thiophen-3-yl)-4-(hydroxyamino)-4-oxobutan-2-yl)-1H-1,2,3-triazol-4-yl)ethyl)-4-fluorobenzamide] as the compound, how does the “Activity: ratio” value read?
**A.** 1.9
